US20200369667A1, “HETEROCYCLIC COMPOUNDS AS PRMT5 INHIBITORS” (ANGEX PHARMACEUTICAL, INC., priority 2017, published 2020)

Target: PRMT5:MEP50 (Homo sapiens, UniProt O14744)
Test: PRMT5:MEP50 Flashplate Assay
Type: biochemical
Conditions: PRMT5:MEP50 inhibitory activity, 3H-SAM FlashPlate, class symbol
Procedure: Ten-point curves of inhibitor compounds were made using serial threefold dilutions in DMSO (the final top concentration of compound was 10 μM, 1% DMSO). Reaction mixture consisting of 50 mM Tris-HCl (pH 8.5), 0.002% Tween20, 0.005% BSA (Bovine Serum Albumin), 1 mM TCEP, and 1% DMSO. Substrates are freshly prepared in reaction buffer. PRMT5:MEP50 was then added into substrate solution and mixed gently. Inhibitor compound was then added and incubated for 30 min at room temperature. ^3H-SAM was added to initiate the reaction. Reactions were incubated for 2 h at room temperature and quenched with 0.5 mM SAM (S-adenosyl-L-Methionine) in assay buffer. An aliquot of the reaction mix was transferred to a streptavidin-coated 384-well FlashPlate (PerkinElmer). After an incubation time of 1 h, the plate was washed and then read on a TopCount (PerkinElmer) to measure the amount of tritium incorporated into the peptide substrate. IC50 was calculated using conventional curve-fitting method.

Chain of PRMT5:MEP50 (O14744 whole entry, species assumed): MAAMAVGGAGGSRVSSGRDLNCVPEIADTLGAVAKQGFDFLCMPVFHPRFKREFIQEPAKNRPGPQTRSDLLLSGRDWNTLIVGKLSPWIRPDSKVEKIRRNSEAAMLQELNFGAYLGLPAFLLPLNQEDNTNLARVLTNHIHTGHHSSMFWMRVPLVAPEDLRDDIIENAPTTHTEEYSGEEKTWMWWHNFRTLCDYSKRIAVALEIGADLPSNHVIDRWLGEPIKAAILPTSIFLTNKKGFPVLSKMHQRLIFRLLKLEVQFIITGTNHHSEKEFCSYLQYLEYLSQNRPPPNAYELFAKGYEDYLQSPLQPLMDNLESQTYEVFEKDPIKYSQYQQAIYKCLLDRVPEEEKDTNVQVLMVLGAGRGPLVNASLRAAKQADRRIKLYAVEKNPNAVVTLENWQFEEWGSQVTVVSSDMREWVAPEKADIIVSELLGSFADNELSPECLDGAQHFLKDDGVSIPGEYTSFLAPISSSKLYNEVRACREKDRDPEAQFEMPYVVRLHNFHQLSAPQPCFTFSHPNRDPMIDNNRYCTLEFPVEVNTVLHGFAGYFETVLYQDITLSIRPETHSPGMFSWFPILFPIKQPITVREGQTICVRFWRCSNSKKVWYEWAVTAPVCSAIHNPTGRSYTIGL
Chain of PRMT5:MEP50 (Q9BQA1 whole entry partner, species assumed): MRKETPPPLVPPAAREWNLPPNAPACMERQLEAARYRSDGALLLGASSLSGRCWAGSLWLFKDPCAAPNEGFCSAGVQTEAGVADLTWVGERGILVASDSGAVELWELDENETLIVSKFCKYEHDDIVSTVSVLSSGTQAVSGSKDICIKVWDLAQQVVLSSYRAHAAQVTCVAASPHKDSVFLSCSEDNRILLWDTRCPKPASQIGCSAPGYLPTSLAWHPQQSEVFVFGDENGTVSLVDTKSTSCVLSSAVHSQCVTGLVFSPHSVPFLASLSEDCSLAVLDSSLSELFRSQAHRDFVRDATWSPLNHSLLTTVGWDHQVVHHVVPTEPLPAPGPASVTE

Row | SMILES | IC50 [nM]
1 | CC1(C)Oc2ccc(CC[C@H]3O[C@@H](n4ccc5c(N)ncnc54)[C@H](O)[C@@H]3O)cc2N=C1N [Compound 2-12] | < 1
2 | Cn1c(N)nc2cc(CC[C@H]3C[C@@H](n4ccc5c(N)ncnc54)[C@H](O)[C@@H]3O)ccc2c1=O [Compound 1-7, 2-amino-7-(2-((1S,2R,3S,4R)-4-(4-amino-7H-pyrrolo[2,3-d]pyrimidin-7-yl)-2,3-dihydroxycyclopentyl)ethyl)-3-methylquinazolin-4(3H)-one] | < 1
3 | C[C@@H]1CNc2nc3cc(CC[C@H]4C[C@@H](n5ccc6c(N)ncnc65)[C@H](O)[C@@H]4O)ccc3cc2O1 [Compound 1-10] | < 1
4 | CC1(C)C(N)=Nc2cc(CC[C@H]3O[C@@H](n4ccc5c(N)ncnc54)[C@H](O)[C@@H]3O)ccc2S1(=O)=O [Compound 2-11] | 1 to 100
5 | Nc1nc2cc(CCC[C@H]3C[C@@H](n4ccc5c(N)ncnc54)[C@H](O)[C@@H]3O)ccc2cc1Br [Compound 3-7] | 1 to 100
6 | C[C@H]1COc2cc3ccc(CC[C@H]4C[C@@H](n5ccc6c(N)ncnc65)[C@H](O)[C@@H]4O)cc3nc2N1 [Compound 1-8, (1R,2S,3R,5S)-3-(4-amino-7H-pyrrolo[2,3-d]pyrimidine-7-yl)-5-(2-((S)-3-methyl-3,4-dihydro-2H-[1,4]oxazino[3,2-b]quinoline-7-yl)ethyl)cyclopentane-1,2-diol] | < 1
7 | C[C@@H]1COc2cc3ccc(CC[C@H]4C[C@@H](n5ccc6c(N)ncnc65)[C@H](O)[C@@H]4O)cc3nc2N1 [Compound 1-9] | < 1
8 | CC1(C)Cn2c(nc3cc(CC[C@H]4C[C@@H](n5ccc6c(N)ncnc65)[C@H](O)[C@@H]4O)ccc3c2=O)N1 [Compound 1-18] | 1 to 100
9 | C[C@H]1CNc2nc3cc(CC[C@H]4C[C@@H](n5ccc6c(N)ncnc65)[C@H](O)[C@@H]4O)ccc3cc2O1 [Compound 1-11] | < 1
10 | Nc1ncnc2c1ccn2[C@@H]1C[C@H](CCc2ccc3cc4c(nc3c2)NC(=O)CS4)[C@@H](O)[C@H]1O [Compound 4-3] | < 1
11 | Nc1ncnc2c1ccn2[C@@H]1C[C@H](CCc2ccc3cc4c(nc3c2)NCCS4)[C@@H](O)[C@H]1O [Compound 1-13] | < 1
12 | Nc1ncnc2c1ccn2[C@@H]1C[C@H](CCc2ccc3c(=O)n(C4CC4)c(N)nc3c2)[C@@H](O)[C@H]1O [Compound 1-17] | < 1
13 | CN1C(N)=Nc2cc(CC[C@H]3C[C@@H](n4ccc5c(N)ncnc54)[C@H](O)[C@@H]3O)ccc2S1(=O)=O [Compound 1-14] | < 1
14 | CN1C(N)=Nc2cc(CC[C@H]3O[C@@H](n4ccc5c(N)ncnc54)[C@H](O)[C@@H]3O)ccc2S1(=O)=O [Compound 2-8] | 1 to 100
15 | C[C@H]1CNc2nc3cc(CC[C@H]4O[C@@H](n5ccc6c(N)ncnc65)[C@H](O)[C@@H]4O)ccc3cc2O1 [Compound 2-10] | 1 to 100
16 | C[C@@H]1CNc2nc3cc(CC[C@H]4O[C@@H](n5ccc6c(N)ncnc65)[C@H](O)[C@@H]4O)ccc3cc2O1 [Compound 2-9] | 1 to 100
17 | Nc1ncnc2c1ccn2[C@@H]1C[C@H](CCc2ccc3cc4c(nc3c2)NC(=O)CO4)[C@@H](O)[C@H]1O [Compound 1-12] | < 1
18 | CC1(C)Oc2ccc(CC[C@H]3C[C@@H](n4ccc5c(N)ncnc54)[C@H](O)[C@@H]3O)cc2N=C1N [Compound 1-16] | < 1
19 | CC1(C)C(N)=Nc2cc(CC[C@H]3C[C@@H](n4ccc5c(N)ncnc54)[C@H](O)[C@@H]3O)ccc2S1(=O)=O [Compound 1-15] | 1 to 100
